Test [1] has as its target Membrane-associated progesterone receptor component 1 (Homo sapiens, UniProt O00264).
The target of the next test is T1, Ephrin type-A receptor 1 (Homo sapiens, UniProt P21709).
T1 sequence (P21709 whole entry): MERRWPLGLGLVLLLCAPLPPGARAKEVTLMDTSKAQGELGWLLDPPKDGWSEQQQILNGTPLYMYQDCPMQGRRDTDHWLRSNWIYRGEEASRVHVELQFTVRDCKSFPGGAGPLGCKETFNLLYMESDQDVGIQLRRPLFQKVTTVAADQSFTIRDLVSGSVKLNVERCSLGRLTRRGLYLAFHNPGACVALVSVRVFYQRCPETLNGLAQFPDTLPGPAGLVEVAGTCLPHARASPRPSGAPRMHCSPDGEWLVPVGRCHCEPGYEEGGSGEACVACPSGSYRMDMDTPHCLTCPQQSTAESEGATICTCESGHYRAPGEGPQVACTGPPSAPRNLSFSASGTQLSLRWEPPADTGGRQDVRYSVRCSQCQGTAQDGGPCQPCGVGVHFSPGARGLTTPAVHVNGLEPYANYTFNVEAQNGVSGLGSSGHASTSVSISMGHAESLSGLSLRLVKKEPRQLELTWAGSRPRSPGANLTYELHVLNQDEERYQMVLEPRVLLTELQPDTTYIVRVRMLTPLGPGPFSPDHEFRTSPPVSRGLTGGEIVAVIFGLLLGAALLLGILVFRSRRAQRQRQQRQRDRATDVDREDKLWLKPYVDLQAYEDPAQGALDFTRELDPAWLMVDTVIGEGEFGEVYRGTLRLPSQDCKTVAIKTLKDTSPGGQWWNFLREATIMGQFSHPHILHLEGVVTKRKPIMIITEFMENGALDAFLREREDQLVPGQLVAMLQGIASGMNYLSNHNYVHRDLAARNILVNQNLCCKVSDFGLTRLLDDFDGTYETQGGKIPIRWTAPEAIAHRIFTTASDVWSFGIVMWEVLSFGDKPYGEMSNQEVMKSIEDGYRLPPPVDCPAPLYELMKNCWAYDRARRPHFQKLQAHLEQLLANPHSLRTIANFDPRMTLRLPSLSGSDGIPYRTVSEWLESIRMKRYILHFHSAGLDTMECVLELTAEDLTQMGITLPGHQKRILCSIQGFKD

The target in test [2] is Serine/threonine-protein kinase Nek7 (Homo sapiens, UniProt Q8TDX7).
Sequence of Serine/threonine-protein kinase Nek7 (Q8TDX7 whole entry): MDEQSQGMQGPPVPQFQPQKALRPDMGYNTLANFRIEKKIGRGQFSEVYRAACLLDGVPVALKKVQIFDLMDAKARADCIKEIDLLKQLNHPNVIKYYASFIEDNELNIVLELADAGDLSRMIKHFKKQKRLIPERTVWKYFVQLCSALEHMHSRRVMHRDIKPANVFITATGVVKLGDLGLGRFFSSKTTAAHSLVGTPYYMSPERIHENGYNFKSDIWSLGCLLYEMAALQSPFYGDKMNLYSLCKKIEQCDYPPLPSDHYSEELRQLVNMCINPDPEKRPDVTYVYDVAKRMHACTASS
Test [3] addresses Protein kinase C theta type (Homo sapiens, UniProt Q04759).
Test [4] addresses T2, Thyroid hormone receptor-associated protein 3 (Homo sapiens, UniProt Q9Y2W1).
T2 sequence (Q9Y2W1 whole entry): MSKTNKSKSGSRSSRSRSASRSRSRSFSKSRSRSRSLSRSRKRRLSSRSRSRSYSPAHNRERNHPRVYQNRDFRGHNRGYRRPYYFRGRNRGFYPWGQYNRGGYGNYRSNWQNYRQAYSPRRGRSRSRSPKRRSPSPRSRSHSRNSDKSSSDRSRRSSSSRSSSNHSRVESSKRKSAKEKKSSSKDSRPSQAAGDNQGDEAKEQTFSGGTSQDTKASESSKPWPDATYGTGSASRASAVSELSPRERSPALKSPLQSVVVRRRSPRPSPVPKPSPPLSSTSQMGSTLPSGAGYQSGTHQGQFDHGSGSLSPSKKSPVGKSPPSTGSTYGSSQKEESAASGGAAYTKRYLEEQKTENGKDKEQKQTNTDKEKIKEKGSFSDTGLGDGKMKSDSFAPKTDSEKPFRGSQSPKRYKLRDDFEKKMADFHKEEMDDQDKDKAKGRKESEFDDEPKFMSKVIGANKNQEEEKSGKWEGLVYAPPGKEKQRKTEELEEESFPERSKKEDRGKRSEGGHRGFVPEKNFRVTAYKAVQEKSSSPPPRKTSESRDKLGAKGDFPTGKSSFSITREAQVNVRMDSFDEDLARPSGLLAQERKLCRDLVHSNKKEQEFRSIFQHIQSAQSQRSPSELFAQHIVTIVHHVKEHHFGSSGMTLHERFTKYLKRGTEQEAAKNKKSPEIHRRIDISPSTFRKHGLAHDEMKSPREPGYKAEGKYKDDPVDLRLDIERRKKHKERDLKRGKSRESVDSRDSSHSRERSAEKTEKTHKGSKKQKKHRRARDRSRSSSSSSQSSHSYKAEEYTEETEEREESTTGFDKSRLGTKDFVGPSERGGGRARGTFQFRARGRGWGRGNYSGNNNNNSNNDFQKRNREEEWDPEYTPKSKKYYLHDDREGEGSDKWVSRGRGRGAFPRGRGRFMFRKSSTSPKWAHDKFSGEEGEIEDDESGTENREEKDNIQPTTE

The target in test [5] is Dual specificity protein kinase CLK4 (Homo sapiens, UniProt Q9HAZ1).
The target in test [6] is Uncharacterized aarF domain-containing protein kinase 5 (Homo sapiens, UniProt Q3MIX3).
Sequence of Uncharacterized aarF domain-containing protein kinase 5 (Q3MIX3 whole entry, the tested form may be a part): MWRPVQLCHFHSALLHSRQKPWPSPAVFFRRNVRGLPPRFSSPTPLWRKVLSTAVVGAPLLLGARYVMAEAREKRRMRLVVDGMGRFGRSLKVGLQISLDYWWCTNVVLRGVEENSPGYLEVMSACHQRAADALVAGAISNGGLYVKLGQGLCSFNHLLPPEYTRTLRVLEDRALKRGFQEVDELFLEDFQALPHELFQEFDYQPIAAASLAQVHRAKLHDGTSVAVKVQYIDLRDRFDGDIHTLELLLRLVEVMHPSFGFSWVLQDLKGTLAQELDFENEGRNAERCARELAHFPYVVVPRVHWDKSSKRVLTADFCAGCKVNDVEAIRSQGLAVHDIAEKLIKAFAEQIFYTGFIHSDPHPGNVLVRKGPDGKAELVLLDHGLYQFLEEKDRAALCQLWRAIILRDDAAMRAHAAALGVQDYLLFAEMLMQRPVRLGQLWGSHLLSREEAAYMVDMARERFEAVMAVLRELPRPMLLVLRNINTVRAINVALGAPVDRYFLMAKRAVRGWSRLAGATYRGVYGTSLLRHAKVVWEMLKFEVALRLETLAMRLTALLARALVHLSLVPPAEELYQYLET
For test [7], the target named is Dual specificity testis-specific protein kinase 1 (Homo sapiens, UniProt Q15569).
Sequence of Dual specificity testis-specific protein kinase 1 (Q15569 whole entry): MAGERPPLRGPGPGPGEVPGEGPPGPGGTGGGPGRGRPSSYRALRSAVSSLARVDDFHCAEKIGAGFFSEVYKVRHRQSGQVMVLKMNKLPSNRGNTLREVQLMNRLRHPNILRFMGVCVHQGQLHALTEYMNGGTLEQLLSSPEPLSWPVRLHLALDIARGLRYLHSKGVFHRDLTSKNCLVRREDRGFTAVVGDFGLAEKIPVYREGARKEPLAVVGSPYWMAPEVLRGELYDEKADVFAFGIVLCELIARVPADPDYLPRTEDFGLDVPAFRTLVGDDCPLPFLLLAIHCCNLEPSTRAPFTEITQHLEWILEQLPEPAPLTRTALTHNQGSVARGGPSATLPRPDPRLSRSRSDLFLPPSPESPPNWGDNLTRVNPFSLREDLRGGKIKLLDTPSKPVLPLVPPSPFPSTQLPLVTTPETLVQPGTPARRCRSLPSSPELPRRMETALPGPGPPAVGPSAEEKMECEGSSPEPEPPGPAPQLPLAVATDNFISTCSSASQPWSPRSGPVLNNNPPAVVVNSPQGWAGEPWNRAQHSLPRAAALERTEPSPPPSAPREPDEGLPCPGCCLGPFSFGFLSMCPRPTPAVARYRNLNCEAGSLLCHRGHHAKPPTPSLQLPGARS
Test [8] has as its target High affinity nerve growth factor receptor (Homo sapiens, UniProt P04629).
A further test deals with Ephrin type-A receptor 7 (Homo sapiens, UniProt Q15375).
Sequence of Ephrin type-A receptor 7 (Q15375 whole entry): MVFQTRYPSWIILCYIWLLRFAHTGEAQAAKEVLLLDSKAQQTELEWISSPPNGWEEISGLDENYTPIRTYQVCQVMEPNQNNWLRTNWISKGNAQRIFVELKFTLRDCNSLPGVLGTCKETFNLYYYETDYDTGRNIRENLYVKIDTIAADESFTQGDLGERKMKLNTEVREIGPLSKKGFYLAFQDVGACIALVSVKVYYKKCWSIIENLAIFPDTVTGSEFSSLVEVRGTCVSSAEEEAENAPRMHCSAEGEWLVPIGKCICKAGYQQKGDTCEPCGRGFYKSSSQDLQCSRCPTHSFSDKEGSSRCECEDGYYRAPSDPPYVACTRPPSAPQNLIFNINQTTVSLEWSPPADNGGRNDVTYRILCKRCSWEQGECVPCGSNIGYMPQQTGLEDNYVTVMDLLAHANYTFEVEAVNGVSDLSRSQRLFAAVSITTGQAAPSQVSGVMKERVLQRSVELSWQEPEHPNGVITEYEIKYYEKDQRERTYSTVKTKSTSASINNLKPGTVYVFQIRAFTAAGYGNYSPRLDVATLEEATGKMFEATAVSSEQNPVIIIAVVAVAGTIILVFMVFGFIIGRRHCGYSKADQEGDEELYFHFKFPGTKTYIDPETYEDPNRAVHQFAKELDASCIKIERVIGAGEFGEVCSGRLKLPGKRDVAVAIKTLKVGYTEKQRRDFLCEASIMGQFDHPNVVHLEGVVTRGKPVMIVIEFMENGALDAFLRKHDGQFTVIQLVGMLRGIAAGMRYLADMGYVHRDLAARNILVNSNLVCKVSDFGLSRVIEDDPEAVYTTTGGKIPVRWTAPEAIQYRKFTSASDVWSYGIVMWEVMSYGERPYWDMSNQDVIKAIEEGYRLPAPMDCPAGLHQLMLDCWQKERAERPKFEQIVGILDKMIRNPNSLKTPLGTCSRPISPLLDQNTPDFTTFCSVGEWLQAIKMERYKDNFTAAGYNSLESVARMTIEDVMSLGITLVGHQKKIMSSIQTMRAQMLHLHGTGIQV
Test [9] addresses Serine/threonine-protein kinase PAK 6 (Homo sapiens, UniProt Q9NQU5).

Calls of active or inactive are those of the source.
Further: in the data inactive means no Kd found up to 30 µM.

Sequence of Membrane-associated progesterone receptor component 1 (O00264 whole entry): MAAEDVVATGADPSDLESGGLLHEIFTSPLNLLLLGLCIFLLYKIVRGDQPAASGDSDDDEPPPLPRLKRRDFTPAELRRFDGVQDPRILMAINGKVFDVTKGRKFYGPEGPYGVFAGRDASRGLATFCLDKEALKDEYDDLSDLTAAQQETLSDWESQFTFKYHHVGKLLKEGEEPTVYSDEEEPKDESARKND
Sequence of Protein kinase C theta type (Q04759 whole entry): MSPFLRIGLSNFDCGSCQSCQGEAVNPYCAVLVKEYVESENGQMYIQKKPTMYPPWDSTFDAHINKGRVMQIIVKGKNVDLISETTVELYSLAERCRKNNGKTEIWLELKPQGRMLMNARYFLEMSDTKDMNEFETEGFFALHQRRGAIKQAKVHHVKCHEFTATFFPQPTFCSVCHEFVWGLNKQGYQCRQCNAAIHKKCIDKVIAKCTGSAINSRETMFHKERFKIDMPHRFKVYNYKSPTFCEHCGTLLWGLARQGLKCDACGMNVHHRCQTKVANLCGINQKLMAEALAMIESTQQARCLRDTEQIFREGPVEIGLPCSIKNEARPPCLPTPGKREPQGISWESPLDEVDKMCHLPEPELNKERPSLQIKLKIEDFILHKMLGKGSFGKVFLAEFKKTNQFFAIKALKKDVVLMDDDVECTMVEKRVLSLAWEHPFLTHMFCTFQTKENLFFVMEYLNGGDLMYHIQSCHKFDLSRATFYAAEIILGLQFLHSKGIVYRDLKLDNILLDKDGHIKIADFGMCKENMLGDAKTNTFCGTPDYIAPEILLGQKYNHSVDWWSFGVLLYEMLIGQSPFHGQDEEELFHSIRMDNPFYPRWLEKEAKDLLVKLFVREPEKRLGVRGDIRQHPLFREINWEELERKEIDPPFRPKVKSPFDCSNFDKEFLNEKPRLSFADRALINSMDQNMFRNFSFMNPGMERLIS
Sequence of High affinity nerve growth factor receptor (P04629 whole entry): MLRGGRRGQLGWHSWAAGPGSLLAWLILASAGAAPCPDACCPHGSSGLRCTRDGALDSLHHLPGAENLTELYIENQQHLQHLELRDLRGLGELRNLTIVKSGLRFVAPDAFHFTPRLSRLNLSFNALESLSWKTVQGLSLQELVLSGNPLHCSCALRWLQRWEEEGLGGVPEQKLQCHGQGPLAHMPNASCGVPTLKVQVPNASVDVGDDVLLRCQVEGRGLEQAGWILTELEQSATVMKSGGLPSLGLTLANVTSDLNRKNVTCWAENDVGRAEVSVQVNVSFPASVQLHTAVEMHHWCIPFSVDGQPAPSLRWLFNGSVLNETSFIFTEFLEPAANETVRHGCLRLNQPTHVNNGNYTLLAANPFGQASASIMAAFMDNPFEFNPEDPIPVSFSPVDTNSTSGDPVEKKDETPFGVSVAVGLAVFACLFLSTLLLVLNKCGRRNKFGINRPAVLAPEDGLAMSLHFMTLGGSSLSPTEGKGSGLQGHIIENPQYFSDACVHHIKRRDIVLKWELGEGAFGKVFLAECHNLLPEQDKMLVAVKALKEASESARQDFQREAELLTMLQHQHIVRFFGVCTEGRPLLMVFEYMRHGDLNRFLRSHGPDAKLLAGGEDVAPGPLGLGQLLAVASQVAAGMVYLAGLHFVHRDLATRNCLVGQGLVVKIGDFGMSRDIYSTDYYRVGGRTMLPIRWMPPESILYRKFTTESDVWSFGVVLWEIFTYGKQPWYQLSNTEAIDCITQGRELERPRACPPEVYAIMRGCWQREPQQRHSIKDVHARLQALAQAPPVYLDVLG
Sequence of Serine/threonine-protein kinase PAK 6 (Q9NQU5 whole entry): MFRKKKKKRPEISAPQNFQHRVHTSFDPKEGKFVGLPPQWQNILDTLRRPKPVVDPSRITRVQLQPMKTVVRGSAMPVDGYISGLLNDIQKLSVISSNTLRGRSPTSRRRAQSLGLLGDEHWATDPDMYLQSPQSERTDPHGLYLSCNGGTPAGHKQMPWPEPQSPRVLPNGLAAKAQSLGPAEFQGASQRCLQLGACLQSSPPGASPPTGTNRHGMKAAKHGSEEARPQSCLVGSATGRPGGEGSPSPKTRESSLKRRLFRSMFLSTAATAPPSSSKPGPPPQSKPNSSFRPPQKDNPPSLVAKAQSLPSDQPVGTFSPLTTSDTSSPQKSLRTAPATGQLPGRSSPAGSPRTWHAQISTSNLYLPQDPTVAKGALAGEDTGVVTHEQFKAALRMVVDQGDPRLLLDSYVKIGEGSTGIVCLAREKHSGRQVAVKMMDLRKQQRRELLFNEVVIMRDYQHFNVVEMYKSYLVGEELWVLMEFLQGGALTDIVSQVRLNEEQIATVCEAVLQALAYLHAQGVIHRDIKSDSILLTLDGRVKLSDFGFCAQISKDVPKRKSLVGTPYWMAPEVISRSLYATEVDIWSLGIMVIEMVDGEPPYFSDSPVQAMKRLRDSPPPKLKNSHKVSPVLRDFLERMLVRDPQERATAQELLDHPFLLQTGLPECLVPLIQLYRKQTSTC

For orientation: Kd means the free concentration of one partner at which half of the binding sites on the other are occupied at equilibrium, for simple one-to-one binding. For `COc1cc2nccc(Oc3ccc(NC(=O)NC4CC4)c(Cl)c3)c2cc1C(N)=O` [LENVATINIB], the Kd (in [1]; at Ephrin type-A receptor 1; in test [2]; in [3]; in test [4]; in [5]) was > 30 µM (inactive) each time. The Kd in test [6] and in test [7] was > 30 µM (inactive) each time.
For `CO[C@H]1C[C@@H]2CC[C@@H](C)[C@@](O)(O2)C(=O)C(=O)N2CCCC[C@H]2C(=O)O[C@H]([C@H](C)C[C@@H]2CC[C@@H](OCCO)[C@H](OC)C2)CC(=O)[C@H](C)/C=C(\C)[C@@H](O)[C@@H](OC)C(=O)[C@H](C)C[C@H](C)/C=C/C=C/C=C/1C` [EVEROLIMUS], the Kd (at Ephrin type-A receptor 1; in test [2]; in test [8]; in test [3]; in test [4]; in test [5]) was > 30 µM (inactive) throughout. The Kd (on Ephrin type-A receptor 7; in test [7]) was > 30 µM (inactive) in each case.
Consider `CCS(=O)(=O)N1CC(CC#N)(n2cc(-c3ncnc4[nH]ccc34)cn2)C1` [BARICITINIB], for which the Kd (in [9]; in [1]; at Ephrin type-A receptor 1; in test [3]; in test [4]; in [5]) was > 30 µM (inactive) throughout. Further, the Kd (at Ephrin type-A receptor 7; in test [6]; in [7]) was > 30 µM (inactive) throughout.
As to `Cc1ccc(-n2nc(C(C)(C)C)cc2NC(=O)NCc2cc(F)ccc2Oc2ccc3c(cnn3CCO)c2)cc1` [PEXMETINIB], the Kd in test [9] is > 30 µM (inactive); in [1], > 30 µM (inactive); on Ephrin type-A receptor 1, 2.64 µM (active); in [2], > 30 µM (inactive); in [8] it was 3.13 µM (active); in [3] it was > 30 µM (inactive). For the same compound, the results for the Kd (in [5]; on Ephrin type-A receptor 7; in test [7]) were > 30 µM (inactive), 3.31 µM (active) and > 30 µM (inactive), respectively.
Turning to `COc1cc(N2CCC(N3CCN(C)CC3)CC2)ccc1Nc1ncnc(Nc2ccccc2S(=O)(=O)C(C)C)n1` [ASP-3026], the Kd (in test [9]; in test [8]; in test [3]; in test [4]; in test [5]; on Ephrin type-A receptor 7) was > 30 µM (inactive) throughout. In addition, the Kd in test [6] and in test [7] was > 30 µM (inactive) in each case.
`C[C@@H](c1ccc2nccn2c1)n1nnc2ncc(-c3cnn(C)c3)nc21` [SAVOLITINIB]: the Kd in [1], in test [4], in test [5] and in [7] was > 30 µM (inactive) in each case.
`CNC(=O)c1cc(Oc2ccc(NC(=O)Nc3ccc(Cl)c(C(F)(F)F)c3)c(F)c2)ccn1` [REGORAFENIB]: the Kd in [1] was > 30 µM (inactive); on Ephrin type-A receptor 1 it was 0.007 µM; in test [2] it was > 30 µM (inactive); in [8] it was > 30 µM (inactive); in test [3] it was > 30 µM (inactive); in test [5] it was > 30 µM (inactive).
On to `CCCS(=O)(=O)Nc1ccc(F)c(C(=O)c2c[nH]c3ncc(-c4ccc(Cl)cc4)cc23)c1F` [VEMURAFENIB], for which the Kd (in [1]; at Ephrin type-A receptor 1; in test [2]; in test [8]; in [3]; in test [4]) was > 30 µM (inactive) in each case. In addition, the Kd in test [5] and in test [6] was > 30 µM (inactive) each time.
`CC[C@@H]1C(=O)N(C)c2cnc(Nc3ccc(C(=O)N[C@H]4CC[C@H](N5CCN(CC6CC6)CC5)CC4)cc3OC)nc2N1C(C)C` [VOLASERTIB]: the Kd (in test [1]; on Ephrin type-A receptor 1; in test [2]; in test [8]; in test [3]; in test [4]) was > 30 µM (inactive) each time. In addition, the Kd (in test [5]; at Ephrin type-A receptor 7; in test [6]; in [7]) was > 30 µM (inactive) each time.
On to `CC[C@H](Nc1ncnc2[nH]cnc12)c1nc2cccc(F)c2c(=O)n1-c1ccccc1` [IDELALISIB], for which the Kd (in [9]; in test [1]; on Ephrin type-A receptor 1; in [8]; in [3]; in test [4]) was > 30 µM (inactive) throughout. The Kd (in test [5]; at Ephrin type-A receptor 7; in test [6]; in [7]) was > 30 µM (inactive) in each case.
As to `COC(=O)N[C@@H](C)CNc1nccc(-c2cn(C(C)C)nc2-c2cc(Cl)cc(NS(C)(=O)=O)c2F)n1` [ENCORAFENIB], the Kd in test [1] is 0.204 µM; at Ephrin type-A receptor 1, > 30 µM (inactive); in test [8], > 30 µM (inactive); in test [3] it was > 30 µM (inactive); in test [4], > 30 µM (inactive); in [5], > 30 µM (inactive). In addition, the Kd (at Ephrin type-A receptor 7; in test [6]) was > 30 µM (inactive) in each case.
As to `O=c1sn(-c2cccc3ccccc23)c(=O)n1Cc1ccccc1` [TIDEGLUSIB], the Kd (in test [9]; in test [1]; at Ephrin type-A receptor 1; in [8]; in test [3]; in [4]) was > 30 µM (inactive) throughout. The Kd (in [5]; at Ephrin type-A receptor 7; in test [7]) was > 30 µM (inactive) each time.
On to `CN(C)C(=O)c1cc2cnc(Nc3ccc(N4CCNCC4)cn3)nc2n1C1CCCC1` [RIBOCICLIB], for which the Kd (in test [1]; at Ephrin type-A receptor 1; in test [2]; in [8]; in [5]; on Ephrin type-A receptor 7) was > 30 µM (inactive) throughout. Also, the Kd in test [6] and in test [7] was > 30 µM (inactive) throughout.
On to `CNS(=O)(=O)Nc1nccc(Cc2c(C)c3ccc(Oc4ncccn4)cc3oc2=O)c1F` [AVUTOMETINIB], for which the Kd (in [1]; in test [2]; in test [3]; in [4]; in test [5]; at Ephrin type-A receptor 7) was > 30 µM (inactive) in each case. Moreover, the Kd in test [6] is > 30 µM (inactive).

Source of the values: ChEMBL document CHEMBL3991601, “The target landscape of clinical kinase drugs” (Science, 2017).
